Among the data in ChEMBL document CHEMBL3414527, “Engineering potent and selective analogues of GpTx-1, a tarantula venom peptide antagonist of the Na(V)1.7 sodium channel” (J Med Chem, 2015) are IC50 values, retold here.

By IC50 is commonly meant the midpoint of a concentration-inhibition curve. A low value points to greater potency.

Experiment [1] has as its target Sodium channel protein type 9 subunit alpha (Homo sapiens, UniProt Q15858). The experiment in a line: Inhibition of human NaV1.7 at -140 mV holding potential by whole-cell patch clamp assay.
Experiment [2] concerns the target Sodium channel protein type 5 subunit alpha (Homo sapiens, UniProt Q14524). Kind of experiment: Inhibition of human NaV1.5 at -140 mV holding potential by whole-cell patch clamp assay.

Each structure is given as a SMILES string. Bridge positions count the residues as written; N and C are the ends. Peptide text beside a SMILES is read from it.

Chain of Sodium channel protein type 5 subunit alpha (Q14524 whole entry): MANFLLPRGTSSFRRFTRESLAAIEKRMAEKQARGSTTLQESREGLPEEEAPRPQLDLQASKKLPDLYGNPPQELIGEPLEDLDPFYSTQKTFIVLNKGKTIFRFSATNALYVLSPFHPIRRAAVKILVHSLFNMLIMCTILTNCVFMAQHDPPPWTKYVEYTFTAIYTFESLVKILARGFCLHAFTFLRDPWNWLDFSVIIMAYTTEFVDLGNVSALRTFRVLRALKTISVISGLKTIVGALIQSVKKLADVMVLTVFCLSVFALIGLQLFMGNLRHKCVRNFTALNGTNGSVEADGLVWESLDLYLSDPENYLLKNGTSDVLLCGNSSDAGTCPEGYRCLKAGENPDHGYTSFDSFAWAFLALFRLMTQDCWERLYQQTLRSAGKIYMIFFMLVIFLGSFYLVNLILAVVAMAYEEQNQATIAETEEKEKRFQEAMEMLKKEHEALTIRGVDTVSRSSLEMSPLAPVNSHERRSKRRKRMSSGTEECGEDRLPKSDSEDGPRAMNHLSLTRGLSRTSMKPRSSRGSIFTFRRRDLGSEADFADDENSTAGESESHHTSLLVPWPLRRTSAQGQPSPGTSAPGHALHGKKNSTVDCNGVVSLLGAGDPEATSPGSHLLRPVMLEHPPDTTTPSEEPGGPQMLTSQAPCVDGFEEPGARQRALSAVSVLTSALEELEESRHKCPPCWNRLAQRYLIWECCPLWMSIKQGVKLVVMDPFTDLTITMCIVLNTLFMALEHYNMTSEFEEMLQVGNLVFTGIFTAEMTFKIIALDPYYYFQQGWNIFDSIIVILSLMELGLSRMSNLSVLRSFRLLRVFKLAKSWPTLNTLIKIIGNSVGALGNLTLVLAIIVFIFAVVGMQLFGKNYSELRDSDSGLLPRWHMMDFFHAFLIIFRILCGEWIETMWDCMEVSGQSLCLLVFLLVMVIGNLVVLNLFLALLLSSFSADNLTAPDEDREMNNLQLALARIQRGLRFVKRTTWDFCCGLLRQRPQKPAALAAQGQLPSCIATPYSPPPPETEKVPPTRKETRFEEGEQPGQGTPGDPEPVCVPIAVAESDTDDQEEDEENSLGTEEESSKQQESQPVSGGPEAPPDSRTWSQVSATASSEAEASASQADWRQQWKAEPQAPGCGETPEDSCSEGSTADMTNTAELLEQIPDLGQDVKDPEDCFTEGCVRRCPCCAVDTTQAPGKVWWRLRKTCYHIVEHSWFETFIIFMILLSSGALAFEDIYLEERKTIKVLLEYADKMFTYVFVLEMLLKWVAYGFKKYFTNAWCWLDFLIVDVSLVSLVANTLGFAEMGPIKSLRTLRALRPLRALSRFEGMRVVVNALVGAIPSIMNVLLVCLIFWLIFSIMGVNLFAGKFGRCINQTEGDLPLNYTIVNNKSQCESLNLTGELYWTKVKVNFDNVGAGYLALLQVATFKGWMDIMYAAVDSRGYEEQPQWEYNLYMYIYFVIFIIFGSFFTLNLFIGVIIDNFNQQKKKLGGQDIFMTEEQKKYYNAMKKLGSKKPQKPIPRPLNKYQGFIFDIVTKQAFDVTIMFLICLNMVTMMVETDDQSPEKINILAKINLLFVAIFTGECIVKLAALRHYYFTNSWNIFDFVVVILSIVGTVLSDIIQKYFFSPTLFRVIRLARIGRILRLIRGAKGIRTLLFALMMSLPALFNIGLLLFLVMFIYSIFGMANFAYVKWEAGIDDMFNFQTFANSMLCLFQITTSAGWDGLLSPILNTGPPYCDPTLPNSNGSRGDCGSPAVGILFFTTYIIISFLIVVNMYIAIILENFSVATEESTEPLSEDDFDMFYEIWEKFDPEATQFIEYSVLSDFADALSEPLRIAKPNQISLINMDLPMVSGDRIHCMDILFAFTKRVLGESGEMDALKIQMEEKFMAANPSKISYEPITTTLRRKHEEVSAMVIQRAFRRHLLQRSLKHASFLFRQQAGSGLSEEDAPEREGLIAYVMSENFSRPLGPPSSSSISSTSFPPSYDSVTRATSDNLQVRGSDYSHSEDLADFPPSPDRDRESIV
Chain of Sodium channel protein type 9 subunit alpha (Q15858 whole entry): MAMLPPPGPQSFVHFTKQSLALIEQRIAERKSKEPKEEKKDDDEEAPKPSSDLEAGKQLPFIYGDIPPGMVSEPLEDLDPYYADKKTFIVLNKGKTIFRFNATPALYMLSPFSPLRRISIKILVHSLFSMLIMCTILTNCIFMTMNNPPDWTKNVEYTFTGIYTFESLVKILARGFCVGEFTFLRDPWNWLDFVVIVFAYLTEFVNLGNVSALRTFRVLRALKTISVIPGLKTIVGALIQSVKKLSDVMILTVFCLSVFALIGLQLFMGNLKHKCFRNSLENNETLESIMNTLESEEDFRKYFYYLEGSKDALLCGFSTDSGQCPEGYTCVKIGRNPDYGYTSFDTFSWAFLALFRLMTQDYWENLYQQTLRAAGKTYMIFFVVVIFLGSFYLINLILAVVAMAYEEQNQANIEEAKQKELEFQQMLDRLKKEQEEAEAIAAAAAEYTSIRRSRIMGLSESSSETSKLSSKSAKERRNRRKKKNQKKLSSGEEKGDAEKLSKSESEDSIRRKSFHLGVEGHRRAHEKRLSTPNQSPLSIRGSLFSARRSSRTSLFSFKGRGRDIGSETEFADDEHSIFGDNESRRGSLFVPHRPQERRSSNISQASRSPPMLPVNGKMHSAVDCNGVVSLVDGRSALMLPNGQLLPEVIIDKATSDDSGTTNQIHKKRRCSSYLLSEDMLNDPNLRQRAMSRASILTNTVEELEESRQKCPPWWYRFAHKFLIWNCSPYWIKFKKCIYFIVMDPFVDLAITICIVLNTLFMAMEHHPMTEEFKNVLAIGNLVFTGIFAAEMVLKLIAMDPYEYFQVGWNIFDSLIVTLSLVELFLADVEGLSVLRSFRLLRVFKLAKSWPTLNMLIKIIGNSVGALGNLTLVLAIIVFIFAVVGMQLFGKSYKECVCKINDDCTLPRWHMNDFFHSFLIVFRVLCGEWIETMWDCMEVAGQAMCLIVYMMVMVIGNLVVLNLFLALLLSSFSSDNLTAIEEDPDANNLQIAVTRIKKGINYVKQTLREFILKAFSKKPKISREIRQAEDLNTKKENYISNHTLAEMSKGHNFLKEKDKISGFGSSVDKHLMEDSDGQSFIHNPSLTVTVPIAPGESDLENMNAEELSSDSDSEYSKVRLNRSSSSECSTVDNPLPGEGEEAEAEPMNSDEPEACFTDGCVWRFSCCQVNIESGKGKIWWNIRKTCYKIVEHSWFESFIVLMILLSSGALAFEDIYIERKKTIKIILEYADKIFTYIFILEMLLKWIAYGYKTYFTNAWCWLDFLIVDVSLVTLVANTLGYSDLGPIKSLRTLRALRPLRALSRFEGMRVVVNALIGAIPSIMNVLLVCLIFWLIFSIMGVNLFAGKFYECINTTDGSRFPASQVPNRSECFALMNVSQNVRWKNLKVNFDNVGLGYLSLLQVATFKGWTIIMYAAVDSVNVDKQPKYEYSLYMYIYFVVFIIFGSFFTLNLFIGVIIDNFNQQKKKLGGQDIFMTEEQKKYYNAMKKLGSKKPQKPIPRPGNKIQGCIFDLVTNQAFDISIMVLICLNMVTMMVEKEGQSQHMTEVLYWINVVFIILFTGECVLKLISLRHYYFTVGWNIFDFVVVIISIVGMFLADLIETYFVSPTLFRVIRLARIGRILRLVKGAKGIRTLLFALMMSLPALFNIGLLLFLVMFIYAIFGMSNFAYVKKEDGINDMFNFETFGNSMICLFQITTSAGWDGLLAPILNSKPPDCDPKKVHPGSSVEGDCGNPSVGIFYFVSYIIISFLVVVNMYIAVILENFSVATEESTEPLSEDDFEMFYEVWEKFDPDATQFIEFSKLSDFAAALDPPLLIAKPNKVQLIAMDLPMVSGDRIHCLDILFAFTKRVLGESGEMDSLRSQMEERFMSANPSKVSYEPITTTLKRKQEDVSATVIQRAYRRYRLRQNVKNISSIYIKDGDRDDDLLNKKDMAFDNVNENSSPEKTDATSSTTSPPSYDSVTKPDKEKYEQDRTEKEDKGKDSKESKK

Turning to `CC[C@H](C)[C@@H]1NC(=O)[C@@H]2CSSC[C@@H]3NC(=O)[C@H](C(C)C)NC(=O)[C@H](CC(C)C)NC(=O)[C@H](CC(N)=O)NC(=O)[C@@H]4CCCN4C(=O)[C@H](CCCNC(=N)N)NC(=O)[C@H](CSSC[C@H](NC(=O)[C@@H](N)CC(=O)O)C(=O)N[C@@H](CC(C)C)C(=O)NCC(=O)N[C@@H](Cc4ccccc4)C(=O)N[C@@H](CCSC)C(=O)N[C@@H](CCCNC(=N)N)C(=O)N[C@@H](C)C(=O)N2)NC(=O)[C@H](CSSC[C@@H](C(=O)N[C@@H](CCCCN)C(=O)N[C@@H](Cc2ccc(O)cc2)C(=O)N[C@H](C(=O)N[C@@H](Cc2ccccc2)C(N)=O)C(C)C)NC(=O)[C@H](Cc2c[nH]c4ccccc24)NC(=O)[C@H](CCCCN)NC(=O)[C@H](Cc2cnc[nH]2)NC(=O)[C@H]([C@@H](C)O)NC(=O)[C@H](CCCNC(=N)N)NC(=O)[C@H](CO)NC3=O)NC(=O)[C@H](CCCCN)NC(=O)[C@H](CC(=O)O)NC(=O)[C@H](CC(N)=O)NC(=O)[C@H](CC(=O)O)NC(=O)[C@@H]2CCCN2C1=O` (H-DCLGFMRACIPDNDKCCRPNLVCSRTHKWCKYVF-NH2; disulfide 2-17, 9-23, 16-30), the IC50 is 500 nM in experiment [1] and more than 5000 nM in experiment [2].
`CC[C@H](C)[C@@H]1NC(=O)[C@@H]2CSSC[C@@H]3NC(=O)[C@H](C(C)C)NC(=O)[C@H](CC(C)C)NC(=O)[C@H](CC(N)=O)NC(=O)[C@@H]4CCCN4C(=O)[C@H](CCCNC(=N)N)NC(=O)[C@H](CSSC[C@H](NC(=O)[C@@H](N)CC(=O)O)C(=O)N[C@@H](CC(C)C)C(=O)NCC(=O)N[C@@H](C)C(=O)N[C@@H](Cc4cccc5ccccc45)C(=O)N[C@@H](CCCNC(=N)N)C(=O)N[C@@H](CCCCN)C(=O)N2)NC(=O)[C@H](CSSC[C@@H](C(=O)N[C@@H](CCCCN)C(=O)N[C@@H](Cc2ccc(O)cc2)C(=O)N[C@H](C(=O)N[C@@H](Cc2ccccc2)C(N)=O)C(C)C)NC(=O)[C@H](Cc2c[nH]c4ccccc24)NC(=O)[C@H](CCCCN)NC(=O)[C@H](Cc2cnc[nH]2)NC(=O)[C@H]([C@@H](C)O)NC(=O)[C@H](CCCNC(=N)N)NC(=O)[C@H](CO)NC3=O)NC(=O)[C@H](CCCCN)NC(=O)[C@H](CC(=O)O)NC(=O)[C@H](CC(N)=O)NC(=O)[C@H](CC(=O)O)NC(=O)[C@@H]2CCCN2C1=O`: the IC50 is 3 nM in experiment [1] and 3600 nM in experiment [2].
On to `CC[C@H](C)[C@@H]1NC(=O)[C@@H]2CSSC[C@@H]3NC(=O)[C@H](C(C)C)NC(=O)[C@H](CC(C)C)NC(=O)[C@H](CC(N)=O)NC(=O)[C@@H]4CCCN4C(=O)[C@H](CCCNC(=N)N)NC(=O)[C@H](CSSC[C@H](NC(=O)[C@@H](N)CC(=O)O)C(=O)N[C@@H](CC(C)C)C(=O)NCC(=O)N[C@@H](CC(C)C)C(=O)N[C@@H](CCSC)C(=O)N[C@@H](CCCNC(=N)N)C(=O)N[C@@H](CCCCN)C(=O)N2)NC(=O)[C@H](CSSC[C@@H](C(=O)N[C@@H](CCCCN)C(=O)N[C@@H](Cc2ccc(O)cc2)C(=O)N[C@H](C(=O)N[C@@H](Cc2ccccc2)C(N)=O)C(C)C)NC(=O)[C@H](Cc2c[nH]c4ccccc24)NC(=O)[C@H](CCCCN)NC(=O)[C@H](Cc2cnc[nH]2)NC(=O)[C@H]([C@@H](C)O)NC(=O)[C@H](CCCNC(=N)N)NC(=O)[C@H](CO)NC3=O)NC(=O)[C@H](CCCCN)NC(=O)[C@H](CC(=O)O)NC(=O)[C@H](CC(N)=O)NC(=O)[C@H](CC(=O)O)NC(=O)[C@@H]2CCCN2C1=O` (H-DCLGLMRKCIPDNDKCCRPNLVCSRTHKWCKYVF-NH2; disulfide 2-17, 9-23, 16-30), for which the IC50 in experiment [1] is 5 nM; in experiment [2], more than 10000 nM.
For `CC[C@H](C)[C@@H]1NC(=O)[C@@H]2CSSC[C@@H]3NC(=O)[C@H](C(C)C)NC(=O)[C@H](CC(C)C)NC(=O)[C@H](CC(N)=O)NC(=O)[C@@H]4CCCN4C(=O)[C@H](CCCNC(=N)N)NC(=O)[C@H](CSSC[C@H](NC(=O)[C@@H](N)CC(=O)O)C(=O)N[C@@H](C)C(=O)NCC(=O)N[C@@H](Cc4ccccc4)C(=O)N[C@@H](CCSC)C(=O)N[C@@H](CCCNC(=N)N)C(=O)N[C@@H](CCCCN)C(=O)N2)NC(=O)[C@H](CSSC[C@@H](C(=O)N[C@@H](CCCCN)C(=O)N[C@@H](Cc2ccc(O)cc2)C(=O)N[C@H](C(=O)N[C@@H](Cc2ccccc2)C(N)=O)C(C)C)NC(=O)[C@H](Cc2c[nH]c4ccccc24)NC(=O)[C@H](CCCCN)NC(=O)[C@H](Cc2cnc[nH]2)NC(=O)[C@H]([C@@H](C)O)NC(=O)[C@H](CCCNC(=N)N)NC(=O)[C@H](CO)NC3=O)NC(=O)[C@H](CCCCN)NC(=O)[C@H](CC(=O)O)NC(=O)[C@H](CC(N)=O)NC(=O)[C@H](CC(=O)O)NC(=O)[C@@H]2CCCN2C1=O` (H-DCAGFMRKCIPDNDKCCRPNLVCSRTHKWCKYVF-NH2; disulfide 2-17, 9-23, 16-30) the same measures were 430 nM and more than 5000 nM.
For `CC[C@H](C)[C@@H]1NC(=O)[C@@H]2CSSC[C@@H]3NC(=O)[C@H](C(C)C)NC(=O)[C@H](CC(C)C)NC(=O)[C@H](CC(N)=O)NC(=O)[C@@H]4CCCN4C(=O)[C@H](CCCNC(=N)N)NC(=O)[C@H](CSSC[C@H](NC(=O)[C@@H](N)CC(=O)O)C(=O)N[C@@H](CC(C)C)C(=O)NCC(=O)N[C@@H](C)C(=O)N[C@@H](CCSC)C(=O)N[C@@H](CCCNC(=N)N)C(=O)N[C@@H](CCCCN)C(=O)N2)NC(=O)[C@H](CSSC[C@@H](C(=O)N[C@@H](CCCCN)C(=O)N[C@@H](Cc2ccc(O)cc2)C(=O)N[C@H](C(=O)N[C@@H](Cc2ccccc2)C(N)=O)C(C)C)NC(=O)[C@H](Cc2c[nH]c4ccccc24)NC(=O)[C@H](CCCCN)NC(=O)[C@H](Cc2cnc[nH]2)NC(=O)[C@H](CC(C)C)NC(=O)[C@H](CCCNC(=N)N)NC(=O)[C@H](CO)NC3=O)NC(=O)[C@H](CCCCN)NC(=O)[C@H](CC(=O)O)NC(=O)[C@H](CC(N)=O)NC(=O)[C@H](CC(=O)O)NC(=O)[C@@H]2CCCN2C1=O` (H-DCLGAMRKCIPDNDKCCRPNLVCSRLHKWCKYVF-NH2; disulfide 2-17, 9-23, 16-30) the same measures were 54 nM and more than 10000 nM.
For `CC[C@H](C)[C@@H]1NC(=O)[C@@H]2CSSC[C@@H]3NC(=O)[C@H](C(C)C)NC(=O)[C@H](CC(C)C)NC(=O)[C@H](CC(N)=O)NC(=O)[C@@H]4CCCN4C(=O)[C@H](CCCNC(=N)N)NC(=O)[C@H](CSSC[C@H](NC(=O)[C@@H](N)CC(=O)O)C(=O)N[C@@H](CC(C)C)C(=O)NCC(=O)N[C@@H](Cc4ccccc4)C(=O)N[C@@H](Cc4ccc(O)cc4)C(=O)N[C@@H](CCCNC(=N)N)C(=O)N[C@@H](CCCCN)C(=O)N2)NC(=O)[C@H](CSSC[C@@H](C(=O)N[C@@H](CCCCN)C(=O)N[C@@H](Cc2ccc(O)cc2)C(=O)N[C@H](C(=O)N[C@@H](Cc2ccccc2)C(N)=O)C(C)C)NC(=O)[C@H](Cc2c[nH]c4ccccc24)NC(=O)[C@H](CCCCN)NC(=O)[C@H](Cc2cnc[nH]2)NC(=O)[C@H]([C@@H](C)O)NC(=O)[C@H](CCCNC(=N)N)NC(=O)[C@H](CO)NC3=O)NC(=O)[C@H](CCCCN)NC(=O)[C@H](CC(=O)O)NC(=O)[C@H](CC(N)=O)NC(=O)[C@H](CC(=O)O)NC(=O)[C@@H]2CCCN2C1=O` (H-DCLGFYRKCIPDNDKCCRPNLVCSRTHKWCKYVF-NH2; disulfide 2-17, 9-23, 16-30) the same measures were 63 nM and more than 10000 nM.
As for `CC[C@H](C)[C@@H]1NC(=O)[C@@H]2CSSC[C@@H]3NC(=O)[C@H](C(C)C)NC(=O)[C@H](CC(C)C)NC(=O)[C@H](CC(N)=O)NC(=O)[C@@H]4CCCN4C(=O)[C@H](CCCNC(=N)N)NC(=O)[C@H](CSSC[C@H](NC(=O)[C@@H](N)CC(=O)O)C(=O)N[C@@H](CC(C)C)C(=O)NCC(=O)N[C@@H](Cc4ccccc4)C(=O)N[C@@H](Cc4cccc5ccccc45)C(=O)N[C@@H](CCCNC(=N)N)C(=O)N[C@@H](CCCCN)C(=O)N2)NC(=O)[C@H](CSSC[C@@H](C(=O)N[C@@H](CCCCN)C(=O)N[C@@H](Cc2ccc(O)cc2)C(=O)N[C@H](C(=O)N[C@@H](Cc2ccccc2)C(N)=O)C(C)C)NC(=O)[C@H](Cc2c[nH]c4ccccc24)NC(=O)[C@H](CCCCN)NC(=O)[C@H](Cc2cnc[nH]2)NC(=O)[C@H]([C@@H](C)O)NC(=O)[C@H](CCCNC(=N)N)NC(=O)[C@H](CO)NC3=O)NC(=O)[C@H](CCCCN)NC(=O)[C@H](CC(=O)O)NC(=O)[C@H](CC(N)=O)NC(=O)[C@H](CC(=O)O)NC(=O)[C@@H]2CCCN2C1=O`, the IC50 in experiment [1] worked out at 4 nM; in experiment [2], 400 nM.
As to `CC[C@H](C)[C@@H]1NC(=O)[C@@H]2CSSC[C@@H]3NC(=O)[C@H](C(C)C)NC(=O)[C@H](CC(C)C)NC(=O)[C@H](CC(N)=O)NC(=O)[C@@H]4CCCN4C(=O)[C@H](CCCNC(=N)N)NC(=O)[C@H](CSSC[C@H](NC(=O)[C@@H](N)CC(=O)O)C(=O)N[C@@H](CC(C)C)C(=O)NCC(=O)N[C@@H](Cc4ccccc4)C(=O)N[C@@H](CCSC)C(=O)N[C@@H](CCCNC(=N)N)C(=O)N[C@@H](CCCCN)C(=O)N2)NC(=O)[C@H](CSSC[C@@H](C(=O)N[C@@H](CCCCN)C(=O)N[C@@H](Cc2ccc(O)cc2)C(=O)N[C@H](C(=O)N[C@@H](C)C(N)=O)C(C)C)NC(=O)[C@H](Cc2c[nH]c4ccccc24)NC(=O)[C@H](CCCCN)NC(=O)[C@H](Cc2cnc[nH]2)NC(=O)[C@H]([C@@H](C)O)NC(=O)[C@H](CCCNC(=N)N)NC(=O)[C@H](CO)NC3=O)NC(=O)[C@H](CCCCN)NC(=O)[C@H](CC(=O)O)NC(=O)[C@H](CC(N)=O)NC(=O)[C@H](CC(=O)O)NC(=O)[C@@H]2CCCN2C1=O` (H-DCLGFMRKCIPDNDKCCRPNLVCSRTHKWCKYVA-NH2; disulfide 2-17, 9-23, 16-30), the IC50 in experiment [1] was 1200 nM; in experiment [2] it was more than 5000 nM.
